Laboratory results taken from patent US8263079B2, “Antibodies against CSF-1R” (ImClone, LLC, priority 2010, dated 2012).
Blank lines part the entries; values can stand above or below the molecule they belong to.

Columns and labels:
DU145 prostate cells = test: Prostate tumor combination study, DU145 xenograft; type: in vivo, mouse; conditions: 12 mg/kg IP Q7Dx3, vs saline control, P 0.15
From the text: Inject Nu/nu mice (male, 7-8 weeks of age) subcutaneously with 1.5×10^7 DU145 prostate cells/mouse and allow tumors to reach 300 mm^3 before treatment. Randomize mice into groups of 10 and treat as follows:
Measure tumor volumes and calculate the T/C % for each treatment as the ratio of the relative tumor volumes versus the control group. Analyze tumor volumes using RM ANOVA.

HCC-1954 breast cells = test: Breast tumor combination studies, HCC-1954 xenograft; type: in vivo, mouse
From the text: Inject Nu/nu mice (female, 7-8 weeks of age) subcutaneously with 1×10^7 HCC-1954 breast cells/mouse and allow tumors to reach 300 mm^3 before treatment. Randomize mice into groups of 12 and treat as follows:
Measure tumor volumes and calculate the T/C % for each treatment group as the ratio of the relative tumor volumes versus the control group. Analyze tumor volumes using RM ANOVA.

CSF-1R = target: T1, CSF-1R (Homo sapiens, UniProt P07333); test: Degradation of CSF-1R in NIH-3T3-CSF-1R cells (Western blot, normalized to actin); type: cell-based
T1 construct: expressed in transfected cells
Experimental: Seed NIH-3T3-CSF-1R cells at 5×10^5 cells/well in a 12 well plate in 1 mL DMEM media containing 10% FBS and 1 mg/mL geniticin. […] CSF-1 is known to induce internalization and degradation of CSF-1R, thereby acting as a positive control for the experiment. Allow CSF-1 to remain on cells for 1 and 5 hours before collecting cells. […] Aspirate medium, lyse cells and run clarified lysates on gels (as described above). Probe transferred proteins with anti-CSF-1R antibodies to determine the amount of receptor for each condition. Probe the same blots with anti-actin antibodies to normalize protein levels. Quantify CSF-1R and actin levels using the Multi-Gauge program to measure band density on the Western blot. The relative total CSF-1R protein level is represented by the total CSF-1R band density divided by the corresponding actin band density.

Molecule: CC(=O)O[C@@]12CO[C@@H]1C[C@H](O)[C@@]1(C)C(=O)[C@H](O)C3=C(C)[C@@H](OC(=O)[C@H](O)[C@@H](NC(=O)OC(C)(C)C)c4ccccc4)C[C@@](O)([C@@H](OC(=O)c4ccccc4)[C@H]21)C3(C)C [Docetaxel]
% T/C (DU145 prostate cells): 59%

Molecule: COc1cccc2c1C(=O)c1c(O)c3c(c(O)c1C2=O)C[C@@](O)(C(=O)CO)C[C@@H]3O[C@H]1C[C@H](N)[C@H](O)[C@H](C)O1 [Doxorubicin]
% T/C (HCC-1954 breast cells; 8 mg/kg IP Q7Dx2, vs saline control, P 0.008): 50%

Molecule: CC(=O)O[C@H]1C(=O)[C@@]2(C)[C@H]([C@H](OC(=O)c3ccccc3)[C@]3(O)C[C@H](OC(=O)[C@H](O)[C@@H](NC(=O)c4ccccc4)c4ccccc4)C(C)=C1C3(C)C)[C@]1(OC(C)=O)CO[C@@H]1C[C@@H]2O [Paclitaxel]
% T/C (HCC-1954 breast cells; 10 mg/kg IP Q7Dx3, vs saline control, P<0.01): 60%

CSF-1R levels (degradation) (CSF-1R; 100 ng/mL CSF-1, by 5 hours, positive control): halved
time to degradation of CSF-1R (CSF-1R; 100 ng/mL CSF-1, positive control): ≤ 1 h
B1: CSF-1: Colony Stimulating Factor-1, CSF-1R ligand, positive control for receptor degradation (protein, listed as Homo sapiens)
chain: MTAPGAAGRCPPTTWLGSLLLLVCLLASRSITEEVSEYCSHMIGSGHLQSLQRLIDSQMETSCQITFEFVDQEQLKDPVCYLKKAFLLVQDIMEDTMRFRDNTPNAIAIVQLQELSLRLKSCFTKDYEEHDKACVRTFYETPLQLLEKVKNVFNETKNLLDKDWNIFSKNCNNSFAECSSQDVVTKPDCNCLYPKAIPSSDPASVSPHQPLAPSMAPVAGLTWEDSEGTEGSSLLPGEQPLHTVDPGSAKQRPPRSTCQSFEPPETPVVKDSTIGGSPQPRPSVGAFNPGMEDILDSAMGTNWVPEEASGEASEIPVPQGTELSPSRPGGGSMQTEPARPSNFLSASSPLPASAKGQQPADVTGTALPRVGPVRPTGQDWNHTPQKTDHPSALLRDPPEPGSPRISSLRPQGLSNPSTLSAQPQLSRSHSSGSVLPLGELEGRRSTRDRRSPAEPEGGPASEGAARPLPRFNSVPLTDTGHERQSEGSFSPQLQESVFHLLVPSVILVLLAVGGLLFYRWRRRSHQEPQRADSPLEQPEGSPLTQDDRQVELPV
